Where two headings read alike, the source gives them in different places.
What was measured:
[1] = molecular target: T1, human SERT (HEK293 membranes) (Homo sapiens, UniProt P31645); test: Human SERT binding (3H-citalopram displacement)
T1 construct: purchased Perkin-Elmer; host or cells: HEK293 membranes
Experimental: Nonspecific binding was determined in the presence of 10 μM fluoxetine for the SERT. The membranes were washed and the radioactivity was counted as above.

[2] = molecular target: T2, cloned human H3 receptor, stably expressed in SK-N-MC cells (Homo sapiens, UniProt Q9Y5N1); test: H3 receptor binding (N-[3H]-α-methylhistamine displacement); details: SK-N-MC membranes, 0.8 nM N-[3H]-α-methylhistamine
T2 construct: expressed in transfected cells

[3] = molecular target: T3, human H3 receptor (SK-N-MC cells) (Homo sapiens, UniProt Q9Y5N1); test: Cyclic AMP accumulation (β-galactosidase reporter, Schild analysis vs histamine); format: cell-based
T3 construct: expressed in transfected cells; host or cells: SK-N-MC sublines with CRE-beta-galactosidase reporter
Experimental: The reporter gene (β-galactosidase) is under the control of multiple cyclic AMP responsive elements. In 96-well plates, histamine was added directly to the cell media followed 5 min later by an addition of forskolin (5 μM final concentration). When appropriate, antagonists were added 10 min prior to agonist addition. After a 6-h incubation at 37° C., the media was aspirated and the cells washed with 200 μL of phosphate-buffered saline followed by a second aspiration. Cells were lysed with 25 μL 0.1× assay buffer (10 mM Na-phosphate, pH 8, 0.2 mM MgSO4, 0.01 mM MnCl2) and incubated at rt for 10 min. Cells were then incubated for 10 min with 100 μL of 1× assay buffer containing 0.5% Triton and 40 mM β-mercaptoethanol. Color was developed using 25 μL of 1 mg/mL substrate solution (chlorophenolred β-D galactopyranoside; Roche Molecular Biochemicals, Indianapolis, Ind.).

[4] = molecular target: T4, Rat SERT (Rattus norvegicus, UniProt P31652); test: Rat brain SERT binding ([3H]-Citalopram displacement); details: rat brain membranes, 0.6 nM [3H]-Citalopram; read-out: Rat SERT Ki
T4 construct: A rat brain without cerebellum (Zivic Laboratories, Inc.—Pittsburgh, Pa.) was homogenized; tissue Zivic Laboratories, Inc; host or cells: rat brain without cerebellum, membranes
T4 sequence (P31652 whole entry): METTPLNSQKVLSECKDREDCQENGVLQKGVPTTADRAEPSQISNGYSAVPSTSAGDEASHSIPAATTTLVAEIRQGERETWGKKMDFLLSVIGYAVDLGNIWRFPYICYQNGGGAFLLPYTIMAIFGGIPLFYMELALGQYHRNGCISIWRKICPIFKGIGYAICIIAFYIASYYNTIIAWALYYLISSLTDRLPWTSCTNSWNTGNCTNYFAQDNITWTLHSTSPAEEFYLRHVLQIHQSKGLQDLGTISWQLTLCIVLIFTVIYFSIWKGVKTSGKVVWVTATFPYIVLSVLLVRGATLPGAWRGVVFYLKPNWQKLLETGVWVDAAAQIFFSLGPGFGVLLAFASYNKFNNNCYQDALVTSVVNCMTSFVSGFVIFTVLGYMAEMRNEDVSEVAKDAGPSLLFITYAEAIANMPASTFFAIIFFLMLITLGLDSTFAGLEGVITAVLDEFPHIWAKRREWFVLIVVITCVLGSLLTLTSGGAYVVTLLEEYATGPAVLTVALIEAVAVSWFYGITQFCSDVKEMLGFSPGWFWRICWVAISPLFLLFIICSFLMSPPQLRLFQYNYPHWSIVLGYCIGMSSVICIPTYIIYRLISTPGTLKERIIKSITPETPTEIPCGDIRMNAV

T2 sequence (Q9Y5N1 whole entry): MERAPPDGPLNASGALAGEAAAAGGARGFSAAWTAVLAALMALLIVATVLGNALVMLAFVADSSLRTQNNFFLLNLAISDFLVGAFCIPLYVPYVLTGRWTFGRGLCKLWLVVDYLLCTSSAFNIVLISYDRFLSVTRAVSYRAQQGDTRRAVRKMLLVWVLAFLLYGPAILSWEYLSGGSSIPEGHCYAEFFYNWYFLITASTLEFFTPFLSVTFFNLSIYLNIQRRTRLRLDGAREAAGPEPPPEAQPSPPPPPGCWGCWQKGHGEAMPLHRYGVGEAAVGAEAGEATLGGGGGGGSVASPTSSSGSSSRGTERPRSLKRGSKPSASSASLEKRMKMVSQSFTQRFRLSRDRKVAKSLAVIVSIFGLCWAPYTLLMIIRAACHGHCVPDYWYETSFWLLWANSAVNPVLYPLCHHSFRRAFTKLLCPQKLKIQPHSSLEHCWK
T3 sequence (Q9Y5N1 whole entry): as above
T1 sequence (P31645 whole entry): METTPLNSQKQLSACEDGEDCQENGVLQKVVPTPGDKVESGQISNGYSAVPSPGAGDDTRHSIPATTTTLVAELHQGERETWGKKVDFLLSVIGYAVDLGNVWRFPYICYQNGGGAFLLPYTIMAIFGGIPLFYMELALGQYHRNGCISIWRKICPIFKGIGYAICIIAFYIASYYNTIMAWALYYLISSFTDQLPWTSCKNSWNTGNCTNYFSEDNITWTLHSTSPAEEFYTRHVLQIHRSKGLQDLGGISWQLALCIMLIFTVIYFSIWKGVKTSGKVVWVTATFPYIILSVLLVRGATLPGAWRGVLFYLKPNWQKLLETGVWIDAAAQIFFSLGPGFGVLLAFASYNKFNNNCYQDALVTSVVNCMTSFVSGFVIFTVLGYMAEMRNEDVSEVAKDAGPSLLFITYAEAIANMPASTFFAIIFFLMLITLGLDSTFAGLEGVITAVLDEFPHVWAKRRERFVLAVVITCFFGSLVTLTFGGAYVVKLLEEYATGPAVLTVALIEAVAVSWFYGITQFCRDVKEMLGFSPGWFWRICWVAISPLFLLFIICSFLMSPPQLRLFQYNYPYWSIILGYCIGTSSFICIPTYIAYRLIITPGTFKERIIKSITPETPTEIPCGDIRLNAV

Row | Structure (SMILES) | Ki [1] | Ki [2] | Kb ([3]; read-out: H3 pA2 (converted)) | Ki [4] | Kb [3]
1 | COc1cc([C@H]2CN3CCC[C@H]3c3cc(OCCCN4CCCCC4)ccc32)cc(OC)c1OC (relative stereo) [Example 22] | 220 nM | 0.8 nM | 0.631 nM |  | 
2 | Nc1ccc([C@H]2CN3CCC[C@H]3c3cc(OCCCN4CCCCC4)ccc32)cc1 (relative stereo) [Example 3] | 8 nM | 0.5 nM | 0.0794 nM |  | 
3 | Ic1cccc([C@H]2CN3CCC[C@H]3c3cc(OCCCN4CCCCC4)ccc32)c1 (relative stereo) [Example 32] | 11 nM | 1 nM | 0.316 nM |  | 
4 | C#Cc1cccc([C@H]2CN3CCC[C@H]3c3cc(OCCCN4CCCCC4)ccc32)c1 (relative stereo) [Example 34] | 3 nM | 2 nM | 1 nM |  | 
5 | Oc1cccc([C@H]2CN3CCC[C@H]3c3cc(OCCCN4CCCCC4)ccc32)c1 (relative stereo) [Example 15] | 3 nM | 0.7 nM | 0.126 nM |  | 
6 | COc1ccc([C@@H]2CN3CCC[C@H]3c3cc(C#CCCN4CCCCC4)ccc32)cc1 (relative stereo) [Example 96A, Cis-6-(4-methoxy-phenyl)-9-(4-piperidin-1-yl-but-1-ynyl)-1,2,3,5,6,10b-hexahydro-pyrrolo[2,1-a]isoquinoline] | 9 nM | 1 nM | 6.31 nM |  | 
7 | FC(F)(F)c1ccc([C@@H]2CN3CCC[C@@H]3c3cc(OCCCN4CCCCC4)ccc32)cc1 (relative stereo) [Example 7B, Trans-9-(3-Piperidin-1-yl-propoxy)-6-(4-trifluoromethyl-phenyl)-1,2,3,5,6,10b-hexahydro-pyrrolo[2,1-a]isoquinoline] |  |  |  | 25 nM | 
8 | Clc1ccccc1[C@@H]1CN2CCC[C@H]2c2cc(OCCCN3CCCCC3)ccc21 (relative stereo) [Example 12A, Cis-6-(2-Chloro-phenyl)-9-(3-piperidin-1-yl-propoxy)-1,2,3,5,6,10b-hexahydro-pyrrolo[2,1-a]isoquinoline] | 8 nM | 2 nM | 1.26 nM |  | 
9 | C#Cc1ccc([C@H]2CN3CCC[C@H]3c3cc(OCCCN4CCCCC4)ccc32)cc1 (relative stereo) [Example 37] | 0.8 nM | 4 nM | 1.58 nM |  | 
10 | COc1ccc([C@H]2CN3CCC[C@H]3c3cc(OCC4CCN(C(C)C)CC4)ccc32)cc1 (relative stereo) [Example 29] | 2 nM | 0.9 nM |  |  | 
11 | CSc1ccc([C@@H]2CN3CCC[C@H]3c3cc(C#CCCN4CCCCC4)ccc32)cc1 (relative stereo) [Example 98A, Cis-6-(4-methylsulfanyl-phenyl)-9-(4-piperidin-1-yl-but-1-ynyl)-1,2,3,5,6,10b-hexahydro-pyrrolo[2,1-a]isoquinoline] | 2 nM | 4 nM | 10 nM |  | 
12 | Oc1ccccc1[C@H]1CN2CCC[C@H]2c2cc(OCCCN3CCCCC3)ccc21 (relative stereo) [Example 16] | 112 nM | 4 nM | 1.26 nM |  | 
13 | Ic1ccc([C@H]2CN3CCC[C@H]3c3cc(OCCCN4CCCCC4)ccc32)cc1 (relative stereo) [Example 35B, Trans-6-(4-Iodo-phenyl)-9-(3-piperidin-1-yl-propoxy)-1,2,3,5,6,10b-hexahydro-pyrrolo[2,1-a]isoquinoline] |  | 2 nM | 3.16 nM |  | 
14 | c1cncc([C@H]2CN3CCC[C@H]3c3cc(OCCCN4CCCCC4)ccc32)c1 (relative stereo) [Example 26] |  | 0.8 nM | 0.0794 nM |  | 
15 | CSc1ccc([C@@H]2CN3CCC[C@H]3c3ccc(C#CCCN4CCCCC4)cc32)cc1 (relative stereo) [Example 97A, Cis-6-(4-methylsulfanyl-phenyl)-8-(4-piperidin-1-yl-but-1-ynyl)-1,2,3,5,6,10b-hexahydro-pyrrolo[2,1-a]isoquinoline] | 2000 nM | 3 nM | 1.58 nM |  | 
16 | COc1ccc([C@H]2CN3CCC[C@H]3c3cc(OCCCN4CCC(F)CC4)ccc32)cc1 (relative stereo) [Example 47] | 5 nM | 3 nM |  |  | 
17 | Cc1cccc([C@H]2CN3CCC[C@H]3c3cc(OCCCN4CCCCC4)ccc32)c1 (relative stereo) [Example 31] | 28 nM | 12 nM |  |  | 
18 | COc1cc(OC)cc([C@H]2CN3CCC[C@H]3c3cc(OCCCN4CCCCC4)ccc32)c1 (relative stereo) [Example 21] | 5 nM | 1 nM | 0.794 nM |  | 

Row | Structure (SMILES) | Ki [1] | Ki [2] | Kb ([3]; read-out: H3 pA2 (converted)) | Ki [4] | Kb [3]
19 | Brc1ccc([C@H]2CN3CCC[C@H]3c3cc(OCCCN4CCCCC4)ccc32)cc1 (relative stereo) [Example 40] | 18 nM | 3 nM |  |  | 
20 | COc1ccccc1[C@H]1CN2CCC[C@H]2c2cc(OCCCN3CCCCC3)ccc21 (relative stereo) [Example 13A] | 21 nM |  |  |  | 
21 | CSc1ccc([C@H]2CN3CCC[C@H]3c3ccc(C#CCCN4CCCCC4)cc32)cc1 (relative stereo) [Example 97B, Trans-6-(4-methylsulfanyl-phenyl)-8-(4-piperidin-1-yl-but-1-ynyl)-1,2,3,5,6,10b-hexahydro-pyrrolo[2,1-a]isoquinoline] |  | 12 nM | 10 nM |  | 
22 | CSc1ccc([C@H]2CN3CCC[C@H]3c3cc(OCCCN4CCCCC4)ccc32)cc1 (relative stereo) [Example 39A, Cis-6-(4-Methylsulfanyl-phenyl)-9-(3-piperidin-1-yl-propoxy)-1,2,3,5,6,10b-hexahydro-pyrrolo[2,1-a]isoquinoline] | 4 nM | 2 nM |  |  | 
23 | COc1ccc([C@H]2CN3CCC[C@H]3c3cc(OCCCN4CCOCC4)ccc32)cc1 (relative stereo) [Example 38] | 7 nM |  |  |  | 
24 | O=[N+]([O-])c1ccc([C@H]2CN3CCC[C@H]3c3cc(OCCCN4CCCCC4)ccc32)cc1 (relative stereo) [Example 2A, Cis-6-(4-Nitro-phenyl)-9-(3-piperidin-1-yl-propoxy)-1,2,3,5,6,10b-hexahydro-pyrrolo[2,1-a]isoquinoline] | 6 nM | 1 nM | 0.398 nM |  | 
25 | Ic1ccc([C@@H]2CN3CCC[C@H]3c3cc(OCCCN4CCCCC4)ccc32)cc1 (relative stereo) [Example 35A, Cis-6-(4-Iodo-phenyl)-9-(3-piperidin-1-yl-propoxy)-1,2,3,5,6,10b-hexahydro-pyrrolo[2,1-a]isoquinoline] | 7 nM | 4 nM | 3.98 nM |  | 
26 | O=[N+]([O-])c1cccc([C@H]2CN3CCC[C@H]3c3cc(OCCCN4CCCCC4)ccc32)c1 (relative stereo) [Example 4A, Cis-6-(3-Nitro-phenyl)-9-(3-piperidin-1-yl-propoxy)-1,2,3,5,6,10b-hexahydro-pyrrolo[2,1-a]isoquinoline] | 4 nM | 1 nM | 0.126 nM |  | 
27 | Fc1ccc([C@H]2CN3CCC[C@H]3c3cc(OCCCN4CCCCC4)ccc32)cc1 (relative stereo) [Example 14B, Trans-6-(4-Fluoro-phenyl)-9-(3-piperidin-1-yl-propoxy)-1,2,3,5,6,10b-hexahydro-pyrrolo[2,1-a]isoquinoline] |  | 1 nM | 0.794 nM |  | 
28 | COc1ccc([C@H]2CN3CCC[C@H]3c3cc(OCCCN4CCCCC4)ccc32)c(OC)c1 (relative stereo) [Example 19] | 5 nM | 1 nM | 0.398 nM |  | 
29 | FC(F)(F)c1ccc([C@H]2CN3CCC[C@H]3c3cc(OCCCN4CCCCC4)ccc32)cc1 (relative stereo) [Example 7A, Cis-9-(3-Piperidin-1-yl-propoxy)-6-(4-trifluoromethyl-phenyl)-1,2,3,5,6,10b-hexahydro-pyrrolo[2,1-a]isoquinoline] | 12 nM | 5 nM | 6.31 nM |  | 
30 | Fc1ccc([C@@H]2CN3CCC[C@H]3c3cc(OCCCN4CCCCC4)ccc32)cc1 (relative stereo) [Example 14A, Cis-6-(4-Fluoro-phenyl)-9-(3-piperidin-1-yl-propoxy)-1,2,3,5,6,10b-hexahydro-pyrrolo[2,1-a]isoquinoline] | 3 nM | 2 nM | 1 nM |  | 
31 | c1ccc([C@H]2CN3CCC[C@H]3c3cc(OCCCN4CCCCC4)ccc32)nc1 (relative stereo) [Example 25] |  | 0.8 nM |  |  | 0.1 nM
32 | Clc1ccc([C@@H]2CN3CCC[C@H]3c3cc(OCCCN4CCCCC4)ccc32)cc1 (relative stereo) [Example 66A, Cis-6-(4-Chloro-phenyl)-9-(3-piperidin-1-yl-propoxy)-1,2,3,5,6,10b-hexahydro-pyrrolo[2,1-a]isoquinoline] | 6 nM | 2 nM |  |  | 
33 | Clc1ccc([C@@H]2CN3CCC[C@H]3c3cc(OCCCN4CCCCC4)ccc32)cc1Cl (relative stereo) [Example 6A, Cis-6-(3,4-Dichloro-phenyl)-9-(3-piperidin-1-yl-propoxy)-1,2,3,5,6,10b-hexahydro-pyrrolo[2,1-a]isoquinoline] | 4 nM | 3 nM | 6.31 nM |  | 
34 | COc1ccc([C@H]2CN3CCC[C@H]3c3cc(OCCCN4CCCCC4)ccc32)cc1OC (relative stereo) [Example 18] | 13 nM | 0.9 nM | 0.501 nM |  | 
35 | Cc1ccc([C@H]2CN3CCC[C@H]3c3cc(OCCCN4CCCCC4)ccc32)cc1 (relative stereo) [Example 5A, Cis-9-(3-Piperidine-1-yl-propoxy)-6-p-tolyl-1,2,3,5,6,10b-hexahydro-pyrrolo[2,1-a]isoquinoline] | 4 nM | 2 nM | 2.51 nM |  | 
36 | COc1ccc(OC)c([C@H]2CN3CCC[C@H]3c3cc(OCCCN4CCCCC4)ccc32)c1 (relative stereo) [Example 20] | 43 nM | 1 nM | 1 nM |  | 

Source: patent publication US8273762B2, “Hexahydro-pyrrolo-isoquinoline compounds” (Janssen Pharmaceutica NV, priority 2005, dated 2012)
